Measured values: patent US20250346585A1 (Alexion Pharmaceuticals, Inc., priority 2022, published 2025)
Read-outs that look alike come from different tables or passages of the source.

Target: Human complement C1s enzyme (Homo sapiens (Human), UniProt P09871)
Experiment: Human C1s enzyme assay
Assay type: biochemical
Settings: read-out: IC50 (Stars)
Experimental: Human complement C1s enzyme (purified from human serum, Complement Technology, Inc.) at 1.16 nM final concentration was incubated with test compound at various concentrations for 5 min at room temperature in 50 mM Tris, 1 M NaCl, pH 7.5. A synthetic substrate Z-L-Lys-SBzl and DTNB (Ellman's reagent) were added to final concentrations of 100 μM each. Absorbance at 405 nm (A405) was recorded at 30 second intervals for 30 min using a microplate spectrophotometer. IC50 values were calculated by nonlinear regression of complement C1s reaction rates as a function of test compound concentration.

[1] = Human complement C1s enzyme 1.16 nM, substrate Z-L-Lys-SBzl 100 μM, assay of Example 3
[2] = Human C1s enzyme assay of Example 3

Human complement C1s enzyme, sequence (P09871 438-688 limits assumed): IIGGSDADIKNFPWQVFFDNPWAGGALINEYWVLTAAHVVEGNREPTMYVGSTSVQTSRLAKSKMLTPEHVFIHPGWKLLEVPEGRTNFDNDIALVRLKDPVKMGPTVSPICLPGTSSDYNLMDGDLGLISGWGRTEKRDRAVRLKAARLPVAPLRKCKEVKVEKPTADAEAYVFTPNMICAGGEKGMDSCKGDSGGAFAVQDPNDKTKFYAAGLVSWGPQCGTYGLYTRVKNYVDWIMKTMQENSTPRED
Human complement C1s enzyme, sequence (P09871 16-437 partner limits assumed): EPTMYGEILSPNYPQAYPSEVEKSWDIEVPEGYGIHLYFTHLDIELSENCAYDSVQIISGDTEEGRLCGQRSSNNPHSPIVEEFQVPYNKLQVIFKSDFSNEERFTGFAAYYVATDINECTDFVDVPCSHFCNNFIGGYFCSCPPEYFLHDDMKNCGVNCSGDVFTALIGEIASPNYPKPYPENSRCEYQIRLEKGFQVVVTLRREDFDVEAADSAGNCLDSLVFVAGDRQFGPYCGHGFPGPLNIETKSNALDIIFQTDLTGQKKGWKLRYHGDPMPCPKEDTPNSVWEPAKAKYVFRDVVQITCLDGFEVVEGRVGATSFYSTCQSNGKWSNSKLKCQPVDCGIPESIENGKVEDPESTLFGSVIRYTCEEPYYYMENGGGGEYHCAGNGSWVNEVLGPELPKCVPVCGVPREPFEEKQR

| Structure (SMILES) | IC50 [1] | IC50 [2] | other results |
| --- | --- | --- | --- |
| COC[C@@]1(F)C[C@@H](C(=O)N[C@H](CO)c2cc(C(=N)N)cs2)N(C(=O)CNC(=O)c2ccc3c(c2)C(F)(F)c2ccccc2-3)C1 [Compound 397, (2S,4R)—N—((R)-1-(4-carbamimidoylthiophen-2-yl)-2-hydroxyethyl)-1-((9,9-difluoro-9H-fluorene-2-carbonyl)glycyl)-4-fluoro-4-(methoxymethyl)pyrrolidine-2-carboxamide] | < 0.1 µM | – | – |
| C[C@@H](NC(=O)[C@@H]1C[C@@H](F)CN1C(=O)CNC(=O)c1ccc2c(c1)-c1ccccc1C2(F)F)c1cc(C(=N)N)cs1 [Compound 202, (2S,4R)—N—((R)-1-(4-carbamimidoylthiophen-2-yl)ethyl)-1-((9,9-difluoro-9H-fluorene-3-carbonyl)glycyl)-4-fluoropyrrolidine-2-carboxamide] | < 0.1 µM | – | – |
| Cc1ccc(-c2cccc(C(=O)NCC(=O)N3C[C@H](S(C)(=O)=O)C[C@H]3C(=O)N[C@H](CO)c3cc(C(=N)N)cs3)c2)cc1 [Compound 404, (2S,4R)—N—((R)-1-(4-carbamimidoylthiophen-2-yl)-2-hydroxyethyl)-1-((4′-methyl-[1,1′-biphenyl]-3-carbonyl)glycyl)-4-(methylsulfonyl) pyrrolidine-2-carboxamide] | – | – | IC50 (Human complement C1s enzyme 1.16 nM, substrate Z-L-Lys-SBzl, assay of Example 3): < 0.1 µM |
| N=C(N)c1csc(CNC(=O)[C@@H]2CC3(CN2C(=O)CNC(=O)c2ccc(-c4ccsc4)cc2)OCCO3)c1 [Compound 165, (S)-N-((4-carbamimidoylthiophen-2-yl)methyl)-7-((4-(thiophen-3-yl)benzoyl)glycyl)-1,4-dioxa-7-azaspiro[4.4]nonane-8-carboxamide] | – | < 0.1 µM | – |
| COC[C@@]12C[C@@H]1N(C(=O)CNC(=O)c1ccc3c(c1)-c1ccccc1C3(F)F)[C@H](C(=O)N[C@H](C)c1cc(C(=N)N)cs1)C2 [Compound 72, (1S,3S,5R)—N—((R)-1-(4-carbamimidoylthiophen-2-yl)ethyl)-2-((9,9-difluoro-9H-fluorene-3-carbonyl)glycyl)-5-(methoxymethyl)-2-azabicyclo[3.1.0]hexane-3-carboxamide] | – | < 0.1 µM | – |
| C[C@@H](NC(=O)[C@@H]1C[C@](F)(CF)CN1C(=O)CNC(=O)c1ccc2cc3ccccc3cc2c1)c1cc(C(=N)N)cs1 [Compound 235, (2S,4R)-1-((anthracene-2-carbonyl)glycyl)-N—((R)-1-(4-carbamimidoylthiophen-2-yl)ethyl)-4-fluoro-4-(fluoromethyl)pyrrolidine-2-carboxamide] | < 0.1 µM | – | – |
| C[C@@H](NC(=O)[C@@H]1CC2(CN1C(=O)CNC(=O)c1ccc(-c3ccc(F)cn3)cc1)OCCO2)c1cc(C(=N)N)cs1 [Compound 164, (S)—N—((R)-1-(4-carbamimidoylthiophen-2-yl)ethyl)-7-((4-(5-fluoropyridin-2-yl)benzoyl)glycyl)-1,4-dioxa-7-azaspiro[4.4]nonane-8-carboxamide] | – | < 0.1 µM | – |
| C[C@@H](NC(=O)[C@@H]1C[C@@H](S(C)(=O)=O)CN1C(=O)CNC(=O)c1ccc2c(c1)-c1ccccc1C2(F)F)c1cc(C(=N)N)cs1 [Compound 61, (2S,4R)—N—((R)-1-(4-carbamimidoylthiophen-2-yl)ethyl)-1-((9,9-difluoro-9H-fluorene-3-carbonyl)glycyl)-4-(methylsulfonyl)pyrrolidine-2-carboxamide] | – | < 0.1 µM | – |
| C[C@@H](NC(=O)[C@@H]1CC2(CN1C(=O)CNC(=O)c1ccc3c(c1)-c1cc(F)ccc1C3(F)F)OCCO2)c1cc(C(=N)N)cs1 [Compound 225, (S)—N—((R)-1-(4-carbamimidoylthiophen-2-yl)ethyl)-7-((6,9,9-trifluoro-9H-fluorene-3-carbonyl)glycyl)-1,4-dioxa-7-azaspiro[4.4]nonane-8-carboxamide] | < 0.1 µM | – | – |
| C[C@@H](NC(=O)[C@@H]1CC2(CN1C(=O)CNC(=O)c1ccc3c(c1)-c1ccccc1C3(F)F)OCCO2)c1ccc(-c2ncc[nH]2)s1 [Compound 135, (S)—N—((R)-1-(5-(1H-imidazol-2-yl)thiophen-2-yl)ethyl)-7-((9,9-difluoro-9H-fluorene-3-carbonyl)glycyl)-1,4-dioxa-7-azaspiro[4.4]nonane-8-carboxamide] | – | > 1 µM | – |
| COC[C@@]1(F)C[C@@H](C(=O)N[C@H](C)c2cc(C(=N)N)cs2)N(C(=O)CNC(=O)c2ccc(Oc3ccc(F)cc3)cc2)C1 [Compound 17, (2S,4R)—N—((R)-1-(4-carbamimidoylthiophen-2-yl)ethyl)-4-fluoro-1-((4-(4-fluorophenoxy)benzoyl)glycyl)-4-(methoxymethyl)pyrrolidine-2-carboxamide] | – | < 0.1 µM | – |
| N=C(N)c1cc(CNC(=O)[C@@H]2CC3(CN2C(=O)CNC(=O)c2ccc(-c4ccc(F)cc4F)cc2)OCCO3)cs1 [Compound 155, (S)-N-((5-carbamimidoylthiophen-3-yl)methyl)-7-((2′,4′-difluoro-[1,1′-biphenyl]-4-carbonyl)glycyl)-1,4-dioxa-7-azaspiro[4.4]nonane-8-carboxamide] | – | < 0.1 µM | – |
| C[C@@H](NC(=O)[C@@H]1CC2(CN1C(=O)CNC(=O)c1ccc3c(c1)-c1ccccc1C3(F)F)OCCO2)c1cc(C(=N)N)cs1 [Compound 21, (S)—N—((R)-1-(4-carbamimidoylthiophen-2-yl)ethyl)-7-((9,9-difluoro-9H-fluorene-3-carbonyl)glycyl)-1,4-dioxa-7-azaspiro[4.4]nonane-8-carboxamide] | – | < 0.1 µM | – |
| O=C(NCC(=O)N1CC2(C[C@H]1C(=O)NCc1cccs1)OCCO2)c1ccc(Oc2ccc(F)cc2)cc1 [Compound 124, (S)-7-((4-(4-fluorophenoxy)benzoyl)glycyl)-N-(thiophen-2-ylmethyl)-1,4-dioxa-7-azaspiro [4.4]nonane-8-carboxamide] | – | > 1 µM | – |
| Nc1ncc(-c2csc(CNC(=O)[C@@H]3CC4(CN3C(=O)CNC(=O)c3ccc(Oc5ccc(F)cc5)cc3)OCCO4)c2)s1 [Compound 187, (S)—N-((4-(2-aminothiazol-5-yl)thiophen-2-yl)methyl)-7-((4-(4-fluorophenoxy)benzoyl)glycyl)-1,4-dioxa-7-azaspiro[4.4]nonane-8-carboxamide] | – | > 1 µM | – |
| COc1ccc(-c2ccc(C(=O)NCC(=O)N3CC4(C[C@H]3C(=O)NCc3cc(C(=N)N)cs3)OCCO4)cc2)cc1 [Compound 217, (S)—N-((4-carbamimidoylthiophen-2-yl)methyl)-7-((4′-methoxy-[1,1′-biphenyl]-4-carbonyl)glycyl)-1,4-dioxa-7-azaspiro[4.4]nonane-8-carboxamide] | < 0.1 µM | – | – |
| C[C@@H](NC(=O)[C@@H]1CC2(CN1C(=O)CNC(=O)c1ccc(-c3ccc(F)cc3)c(F)c1)OCCO2)c1cc(C(=N)N)cs1 [Compound 175, (S)—N—((R)-1-(4-carbamimidoylthiophen-2-yl)ethyl)-7-((2,4′-difluoro-[1,1′-biphenyl]-4-carbonyl)glycyl)-1,4-dioxa-7-azaspiro[4.4]nonane-8-carboxamide] | – | < 0.1 µM | – |
| C[C@@H](NC(=O)[C@@H]1CC2(CN1C(=O)CNC(=O)c1ccc3c(c1)Oc1ccccc1N3)OCCO2)c1cc(C(=N)N)cs1 [Compound 294, N-(2-((S)-8-(((R)-1-(4-carbamimidoylthiophen-2-yl)ethyl)carbamoyl)-1,4-dioxa-7-azaspiro[4.4]nonan-7-yl)-2-oxoethyl)-10H-phenoxazine-3-carboxamide] | < 0.1 µM | – | – |
| C[C@@H](NC(=O)[C@@H]1CC2(CN1C(=O)CNC(=O)c1ccc3c(c1)-c1ccccc1C3(F)F)OCCO2)c1cc(-c2c[nH]cn2)cs1 [Compound 96, (S)—N—((R)-1-(4-(1H-imidazol-4-yl)thiophen-2-yl)ethyl)-7-((9,9-difluoro-9H-fluorene-3-carbonyl)glycyl)-1,4-dioxa-7-azaspiro[4.4]nonane-8-carboxamide] | – | 0.1 to 1 µM | – |
| C[C@@H](NC(=O)[C@@H]1C[C@](F)(Cn2ccnn2)CN1C(=O)CNC(=O)c1ccc2c(c1)-c1ccccc1C2(F)F)c1cc(C(=N)N)cs1 [Compound 260, (2S,4R)-4-((1H-1,2,3-triazol-1-yl)methyl)-N—((R)-1-(4-carbamimidoylthiophen-2-yl)ethyl)-1-((9,9-difluoro-9H-fluorene-3-carbonyl)glycyl)-4-fluoropyrrolidine-2-carboxamide] | < 0.1 µM | – | – |
| C[C@@H](NC(=O)[C@@H]1C[C@@H](CO)CN1C(=O)CNC(=O)c1ccc2c(c1)-c1ccccc1C2(F)F)c1cc(C(=N)N)cs1 (relative stereo) [Compound 305, (2S,4R*)—N—((R)-1-(4-carbamimidoylthiophen-2-yl)ethyl)-1-((9,9-difluoro-9H-fluorene-3-carbonyl)glycyl)-4-(hydroxymethyl)pyrrolidine-2-carboxamide] | < 0.1 µM | – | – |
| C[C@@H](NC(=O)[C@@H]1C[C@](F)(CF)CN1C(=O)CNC(=O)c1ccc2c(c1)sc1ccccc12)c1cc(C(=N)N)cs1 [Compound 349, (2S,4R)—N—((R)-1-(4-carbamimidoylthiophen-2-yl)ethyl)-1-((dibenzo[b,d]thiophene-3-carbonyl)glycyl)-4-fluoro-4-(fluoromethyl)pyrrolidine-2-carboxamide] | < 0.1 µM | – | – |
| COC[C@@]1(F)C[C@@H](C(=O)N[C@H](C)c2cc(C(=N)N)cs2)N(C(=O)CNC(=O)c2ccc3sc4ccccc4c3c2)C1 [Compound 394, (2S,4R)—N—((R)-1-(4-carbamimidoylthiophen-2-yl)ethyl)-1-((dibenzo[b,d]thiophene-2-carbonyl)glycyl)-4-fluoro-4-(methoxymethyl)pyrrolidine-2-carboxamide] | < 0.1 µM | – | – |
| C[C@@H](NC(=O)[C@@H]1C[C@@H](OC(F)F)CN1C(=O)CNC(=O)c1ccc(Oc2ccc(F)cc2)cc1)c1cc(-c2ncc[nH]2)cs1 [Compound 86, (2S,4R)—N—((R)-1-(4-(1H-imidazol-2-yl)thiophen-2-yl)ethyl)-4-(difluoromethoxy)-1-((4-(4-fluorophenoxy)benzoyl)glycyl)pyrrolidine-2-carboxamide] | – | < 0.1 µM | – |
